Laboratory results from patent US20120122860A1, “SOLID FORMS OF SULFONAMIDES AND AMINO ACIDS” (Plexxikon, Inc., priority 2009, published 2012).
pIC50: −log10 of the molar value.

Experiments:
C-Raf = C-Raf (Homo sapiens, UniProt P04049); assay: Kinase activity assay, C-Raf
Kdr = Kdr (Homo sapiens, UniProt P35968); assay: Kinase activity assay, Kdr
Kit = Kit (Homo sapiens, UniProt P10721); assay: Kinase activity assay, Kit
Src = Src (Homo sapiens, UniProt P12931); assay: Kinase activity assay, Src
Fms = Fms (Homo sapiens, UniProt P07333); assay: Kinase activity assay, Fms
B-Raf = B-Raf (Homo sapiens, UniProt P15056); assay: Kinase activity assay, B-Raf; format: biochemical; details: read-out: activity toward kinase B-Raf, IC50
B-Raf V600E = B-Raf V600E (Homo sapiens, UniProt P15056, V600E); assay: Kinase activity assay, B-Raf V600E; format: biochemical; details: read-out: activity toward kinase B-Raf V600E, IC50

Measured: pIC50

Fms, sequence (P07333 20-972): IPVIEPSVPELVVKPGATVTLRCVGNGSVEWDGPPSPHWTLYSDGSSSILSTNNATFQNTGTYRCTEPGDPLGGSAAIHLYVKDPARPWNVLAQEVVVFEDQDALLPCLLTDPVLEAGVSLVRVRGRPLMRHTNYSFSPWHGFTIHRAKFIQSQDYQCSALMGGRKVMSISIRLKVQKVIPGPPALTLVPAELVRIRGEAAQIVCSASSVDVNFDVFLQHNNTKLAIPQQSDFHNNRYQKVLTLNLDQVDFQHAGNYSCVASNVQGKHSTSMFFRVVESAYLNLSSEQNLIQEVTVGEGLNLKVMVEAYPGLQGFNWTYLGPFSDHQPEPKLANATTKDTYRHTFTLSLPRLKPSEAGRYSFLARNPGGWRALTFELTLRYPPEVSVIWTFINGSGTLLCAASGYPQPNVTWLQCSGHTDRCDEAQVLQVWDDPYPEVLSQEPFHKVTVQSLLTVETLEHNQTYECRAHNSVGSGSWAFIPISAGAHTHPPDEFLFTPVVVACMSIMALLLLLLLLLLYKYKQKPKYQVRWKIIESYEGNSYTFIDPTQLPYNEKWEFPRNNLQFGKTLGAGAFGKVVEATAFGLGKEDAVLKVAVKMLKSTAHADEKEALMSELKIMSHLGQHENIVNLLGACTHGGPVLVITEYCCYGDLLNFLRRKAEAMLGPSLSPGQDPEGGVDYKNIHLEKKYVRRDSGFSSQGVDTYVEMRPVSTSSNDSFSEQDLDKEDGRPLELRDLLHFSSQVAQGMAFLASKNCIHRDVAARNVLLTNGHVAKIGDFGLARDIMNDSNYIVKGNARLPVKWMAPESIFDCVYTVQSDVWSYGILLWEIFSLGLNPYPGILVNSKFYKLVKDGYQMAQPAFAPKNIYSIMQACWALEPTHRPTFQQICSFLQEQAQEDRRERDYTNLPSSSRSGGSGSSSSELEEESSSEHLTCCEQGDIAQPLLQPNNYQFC
B-Raf, sequence (P15056 whole entry): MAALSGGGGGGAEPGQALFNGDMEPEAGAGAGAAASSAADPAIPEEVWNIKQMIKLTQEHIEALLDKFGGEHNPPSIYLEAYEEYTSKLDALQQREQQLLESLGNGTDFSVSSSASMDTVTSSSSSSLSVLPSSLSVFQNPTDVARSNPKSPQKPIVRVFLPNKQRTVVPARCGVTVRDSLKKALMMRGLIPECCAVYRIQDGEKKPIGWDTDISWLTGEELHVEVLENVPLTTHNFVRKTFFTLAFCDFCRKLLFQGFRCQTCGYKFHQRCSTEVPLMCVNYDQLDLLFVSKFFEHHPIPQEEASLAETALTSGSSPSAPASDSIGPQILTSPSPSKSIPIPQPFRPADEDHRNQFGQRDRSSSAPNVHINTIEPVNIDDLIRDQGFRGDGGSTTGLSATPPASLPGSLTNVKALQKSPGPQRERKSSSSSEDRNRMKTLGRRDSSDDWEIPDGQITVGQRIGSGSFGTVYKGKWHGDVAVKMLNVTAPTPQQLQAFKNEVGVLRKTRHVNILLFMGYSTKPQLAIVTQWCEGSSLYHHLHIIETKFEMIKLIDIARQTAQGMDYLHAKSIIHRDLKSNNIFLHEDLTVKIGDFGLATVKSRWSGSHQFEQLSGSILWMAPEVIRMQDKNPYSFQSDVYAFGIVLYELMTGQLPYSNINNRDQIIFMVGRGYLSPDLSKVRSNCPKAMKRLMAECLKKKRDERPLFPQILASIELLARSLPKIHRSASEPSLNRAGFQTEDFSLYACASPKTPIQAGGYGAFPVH
C-Raf, sequence (P04049 whole entry): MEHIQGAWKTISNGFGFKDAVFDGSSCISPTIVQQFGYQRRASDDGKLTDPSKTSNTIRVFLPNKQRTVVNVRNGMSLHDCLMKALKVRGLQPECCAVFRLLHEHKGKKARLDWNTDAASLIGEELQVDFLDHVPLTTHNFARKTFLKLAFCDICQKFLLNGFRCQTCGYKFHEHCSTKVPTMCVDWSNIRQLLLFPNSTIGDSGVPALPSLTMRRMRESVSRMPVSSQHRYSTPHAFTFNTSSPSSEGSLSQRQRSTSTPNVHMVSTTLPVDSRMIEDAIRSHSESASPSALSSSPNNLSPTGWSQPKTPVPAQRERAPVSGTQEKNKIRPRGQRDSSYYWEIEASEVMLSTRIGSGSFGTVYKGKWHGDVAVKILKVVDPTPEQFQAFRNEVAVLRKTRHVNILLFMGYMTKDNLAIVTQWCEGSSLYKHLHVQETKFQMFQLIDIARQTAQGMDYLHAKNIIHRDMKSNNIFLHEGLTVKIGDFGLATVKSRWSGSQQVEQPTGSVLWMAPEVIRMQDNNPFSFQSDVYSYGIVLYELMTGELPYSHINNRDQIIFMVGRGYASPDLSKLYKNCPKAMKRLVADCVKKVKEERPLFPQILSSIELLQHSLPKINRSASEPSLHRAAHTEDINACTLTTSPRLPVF
Src, sequence (P12931 whole entry): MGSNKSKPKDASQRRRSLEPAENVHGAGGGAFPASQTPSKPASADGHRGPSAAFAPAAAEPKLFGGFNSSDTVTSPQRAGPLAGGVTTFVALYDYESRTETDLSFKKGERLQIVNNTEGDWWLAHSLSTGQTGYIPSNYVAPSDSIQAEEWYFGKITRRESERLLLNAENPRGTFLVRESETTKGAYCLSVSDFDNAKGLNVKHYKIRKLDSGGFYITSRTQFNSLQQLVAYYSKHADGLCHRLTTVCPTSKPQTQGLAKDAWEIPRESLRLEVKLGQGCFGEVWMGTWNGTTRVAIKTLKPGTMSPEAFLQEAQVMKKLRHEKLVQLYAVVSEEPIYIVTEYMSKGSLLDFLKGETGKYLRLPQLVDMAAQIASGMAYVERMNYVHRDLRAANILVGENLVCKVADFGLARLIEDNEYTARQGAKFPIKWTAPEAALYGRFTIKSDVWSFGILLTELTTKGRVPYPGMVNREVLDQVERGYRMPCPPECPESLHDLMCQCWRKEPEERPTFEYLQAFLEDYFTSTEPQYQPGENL
B-Raf V600E, sequence (P15056 whole entry V600E): as the sequence (P15056 whole entry) above, with V600E counted along it
Kdr, sequence (P35968 20-1356): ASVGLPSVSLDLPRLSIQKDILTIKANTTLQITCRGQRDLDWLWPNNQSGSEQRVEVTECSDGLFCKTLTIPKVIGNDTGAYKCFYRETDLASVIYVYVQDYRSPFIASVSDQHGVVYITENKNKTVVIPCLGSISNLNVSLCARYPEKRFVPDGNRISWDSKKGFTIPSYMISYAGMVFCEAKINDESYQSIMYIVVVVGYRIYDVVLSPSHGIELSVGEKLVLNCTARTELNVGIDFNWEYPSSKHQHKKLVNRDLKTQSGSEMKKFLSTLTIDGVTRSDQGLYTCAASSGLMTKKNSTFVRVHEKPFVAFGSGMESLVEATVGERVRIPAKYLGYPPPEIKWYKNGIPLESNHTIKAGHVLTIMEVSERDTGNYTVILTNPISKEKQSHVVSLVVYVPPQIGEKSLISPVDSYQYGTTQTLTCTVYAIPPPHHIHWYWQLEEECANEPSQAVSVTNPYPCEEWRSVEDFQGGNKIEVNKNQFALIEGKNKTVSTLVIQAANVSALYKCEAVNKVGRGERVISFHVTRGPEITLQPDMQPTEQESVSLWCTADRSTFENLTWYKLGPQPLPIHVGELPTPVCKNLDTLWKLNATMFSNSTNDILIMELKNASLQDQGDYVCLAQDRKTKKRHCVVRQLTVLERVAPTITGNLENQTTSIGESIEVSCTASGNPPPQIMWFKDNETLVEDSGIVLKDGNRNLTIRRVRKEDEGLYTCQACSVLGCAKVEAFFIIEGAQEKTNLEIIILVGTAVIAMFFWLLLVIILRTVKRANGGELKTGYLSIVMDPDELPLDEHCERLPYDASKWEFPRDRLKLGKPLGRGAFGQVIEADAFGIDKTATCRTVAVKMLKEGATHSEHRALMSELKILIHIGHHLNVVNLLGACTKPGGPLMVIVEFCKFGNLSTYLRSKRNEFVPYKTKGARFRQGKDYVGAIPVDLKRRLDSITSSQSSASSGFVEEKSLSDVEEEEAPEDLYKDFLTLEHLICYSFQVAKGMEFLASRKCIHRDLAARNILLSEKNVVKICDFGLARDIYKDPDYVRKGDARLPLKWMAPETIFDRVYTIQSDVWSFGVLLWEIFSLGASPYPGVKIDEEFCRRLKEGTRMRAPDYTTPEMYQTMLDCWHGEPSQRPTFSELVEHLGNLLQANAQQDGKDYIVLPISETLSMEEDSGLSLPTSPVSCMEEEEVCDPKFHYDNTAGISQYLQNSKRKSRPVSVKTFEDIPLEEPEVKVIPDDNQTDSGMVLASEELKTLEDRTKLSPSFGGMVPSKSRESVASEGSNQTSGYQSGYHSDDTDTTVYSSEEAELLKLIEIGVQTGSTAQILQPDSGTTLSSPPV

CN1CCOc2cc(S(=O)(=O)Nc3ccc(F)c(C(=O)c4c[nH]c5ncc(Cl)cc45)c3F)ccc21 [P-2001, 4-Methyl-3,4-dihydro-2H-benzo[1,4]oxazine-7-sulfonic acid [3-(5-chloro-1H-pyrrolo[2,3-b]pyridine-3-carbonyl)-2,4-difluoro-phenyl]-amide]
not listed: B-Raf V600E
≥ 5.00: all other assays above

Cc1cc(C)cc(S(=O)(=O)Nc2ccc(F)c(C(=O)c3c[nH]c4ncc(Cl)cc34)c2F)c1 [P-2004, N-[3-(5-Chloro-1H-pyrrolo[2,3-b]pyridine-3-carbonyl)-2,4-difluoro-phenyl]-3,5-dimethyl-benzenesulfonamide]
≥ 5.00: all assays above

COc1ccc(S(=O)(=O)Nc2ccc(F)c(C(=O)c3c[nH]c4ncc(Cl)cc34)c2F)cc1F [P-2005, N-[3-(5-Chloro-1H-pyrrolo[2,3-b]pyridine-3-carbonyl)-2,4-difluoro-phenyl]-3-fluoro-4-methoxy-benzenesulfonamide]
≥ 5.00: all assays above

Cc1cc(F)ccc1S(=O)(=O)Nc1ccc(F)c(C(=O)c2c[nH]c3ncc(Cl)cc23)c1F [P-2006, N-[3-(5-Chloro-1H-pyrrolo[2,3-b]pyridine-3-carbonyl)-2,4-difluoro-phenyl]-4-fluoro-2-methyl-benzenesulfonamide]
≥ 5.00: all assays above

O=C(c1c(F)ccc(NS(=O)(=O)c2ccc3c(c2)CCO3)c1F)c1c[nH]c2ncc(Cl)cc12 [P-2007, 2,3-Dihydro-benzofuran-5-sulfonic acid [3-(5-chloro-1H-pyrrolo[2,3-b]pyridine-3-carbonyl)-2,4-difluoro-phenyl]-amide]
not listed: Kdr
≥ 5.00: all other assays above

CCCS(=O)(=O)Nc1ccc(F)c(C(=O)c2c[nH]c3ncc(-c4ccc(F)nc4)cc23)c1F [P-2155, Propane-1-sulfonic acid {2,4-difluoro-3-[5-(6-fluoro-pyridin-3-yl)-1H-pyrrolo[2,3-b]pyridine-3-carbonyl]-phenyl}-amide]
≥ 5.00: all assays above

CCCS(=O)(=O)Nc1ccc(F)c(C(=O)c2c[nH]c3ncc(-c4ccc(S(=O)(=O)N5CCOCC5)cc4)cc23)c1F [P-2166, Propane-1-sulfonic acid (2,4-difluoro-3-{5-[4-(morpholine-4-sulfonyl)-phenyl]-1H-pyrrolo[2,3-b]pyridine-3-carbonyl}-phenyl)-amide]
≥ 5.00: all assays above

CCCS(=O)(=O)Nc1ccc(F)c(C(=O)c2c[nH]c3ncc(-c4ccc(S(=O)(=O)NC)cc4)cc23)c1F [P-2167, 4-{3-[2,6-Difluoro-3-(propane-1-sulfonylamino)-benzoyl]-1H-pyrrolo[2,3-b]pyridin-5-yl}-N-methyl-benzenesulfonamide]
≥ 5.00: all assays above

CCCS(=O)(=O)Nc1ccc(F)c(C(=O)c2c[nH]c3ncc(-c4cccc(O)c4)cc23)c1F [P-2179, Propane-1-sulfonic acid {2,4-difluoro-3-[5-(3-hydroxy-phenyl)-1H-pyrrolo[2,3-b]pyridine-3-carbonyl]-phenyl}-amide]
≥ 5.00: all assays above

CCCS(=O)(=O)Nc1ccc(F)c(C(=O)c2c[nH]c3ncc(-c4ccc(C(=O)NC5CC5)nc4)cc23)c1F [P-2181, 5-{3-[2,6-Difluoro-3-(propane-1-sulfonylamino)-benzoyl]-1H-pyrrolo[2,3-b]pyridin-5-yl}-pyridine-2-carboxylic acid cyclopropylamide]
not listed: C-Raf
≥ 5.00: all other assays above

CCCS(=O)(=O)Nc1ccc(F)c(C(=O)c2c[nH]c3ncc(-c4ccc(S(=O)(=O)N(C)C)cc4)cc23)c1F [P-2185, 4-{3-[2,6-Difluoro-3-(propane-1-sulfonylamino)-benzoyl]-1H-pyrrolo[2,3-b]pyridin-5-yl}-N,N-dimethyl-benzenesulfonamide]
≥ 5.00: all assays above

CCCS(=O)(=O)Nc1ccc(F)c(C(=O)c2c[nH]c3ncc(-c4ccc(SC)nc4)cc23)c1F [P-2187]
not listed: C-Raf
≥ 5.00: all other assays above

CCCS(=O)(=O)Nc1ccc(F)c(C(=O)c2c[nH]c3ncc(-c4ccnc(F)c4)cc23)c1F [P-2192, Propane-1-sulfonic acid {2,4-difluoro-3-[5-(2-fluoro-pyridin-4-yl)-1H-pyrrolo[2,3-b]pyridine-3-carbonyl]-phenyl}-amide]
not listed: C-Raf
≥ 5.00: all other assays above

CCCS(=O)(=O)Nc1ccc(F)c(C(=O)c2c[nH]c3ncc(O)cc23)c1F [P-2204, Propane-1-sulfonic acid [2,4-difluoro-3-(5-hydroxy-1H-pyrrolo[2,3-b]pyridine-3-carbonyl)-phenyl]-amide]
not listed: C-Raf
≥ 5.00: all other assays above

CCS(=O)(=O)Nc1ccc(F)c(C(=O)c2c[nH]c3ncc(Br)cc23)c1F [P-2268, Ethanesulfonic acid [3-(5-bromo-1H-pyrrolo[2,3-b]pyridine-3-carbonyl)-2,4-difluoro-phenyl]-amide]
not listed: C-Raf
≥ 5.00: all other assays above

CC(C)CS(=O)(=O)Nc1ccc(F)c(C(=O)c2c[nH]c3ncc(-c4ccc(F)cc4)cc23)c1F [P-2298, 2-Methyl-propane-1-sulfonic acid {2,4-difluoro-3-[5-(4-fluoro-phenyl)-1H-pyrrolo[2,3-b]pyridine-3-carbonyl]-phenyl}-amide]
not listed: C-Raf
≥ 5.00: all other assays above

O=C(c1c(F)ccc(NS(=O)(=O)CCC(F)(F)F)c1F)c1c[nH]c2ncc(-c3ccc(F)cc3)cc12 [P-2326, 3,3,3-Trifluoro-propane-1-sulfonic acid {2,4-difluoro-3-[5-(4-fluoro-phenyl)-1H-pyrrolo[2,3-b]pyridine-3-carbonyl]-phenyl}-amide]
not listed: C-Raf
≥ 5.00: all other assays above

O=C(c1c(F)ccc(NS(=O)(=O)CC(F)(F)F)c1F)c1c[nH]c2ncc(Br)cc12 [P-2334, 2,2,2-Trifluoro-ethanesulfonic acid [3-(5-bromo-1H-pyrrolo[2,3-b]pyridine-3-carbonyl)-2,4-difluoro-phenyl]-amide]
not listed: C-Raf
≥ 5.00: all other assays above
